{"source": "patent US12441719B2", "about": "“Inhibitors of SARM1” (Disarm Therapeutics, Inc., priority 2019, dated 2025)", "biological_target": "T1, SARM1 (Homo sapiens, UniProt Q6SZW1)", "T1 construct": "AviTag […]; made in house; host or cells: NRK1-HEK293T cells, transiently transfected; the clarified sonicated lysate was used without purification", "T1 sequence (Q6SZW1 with tags, fused parts or gaps)": "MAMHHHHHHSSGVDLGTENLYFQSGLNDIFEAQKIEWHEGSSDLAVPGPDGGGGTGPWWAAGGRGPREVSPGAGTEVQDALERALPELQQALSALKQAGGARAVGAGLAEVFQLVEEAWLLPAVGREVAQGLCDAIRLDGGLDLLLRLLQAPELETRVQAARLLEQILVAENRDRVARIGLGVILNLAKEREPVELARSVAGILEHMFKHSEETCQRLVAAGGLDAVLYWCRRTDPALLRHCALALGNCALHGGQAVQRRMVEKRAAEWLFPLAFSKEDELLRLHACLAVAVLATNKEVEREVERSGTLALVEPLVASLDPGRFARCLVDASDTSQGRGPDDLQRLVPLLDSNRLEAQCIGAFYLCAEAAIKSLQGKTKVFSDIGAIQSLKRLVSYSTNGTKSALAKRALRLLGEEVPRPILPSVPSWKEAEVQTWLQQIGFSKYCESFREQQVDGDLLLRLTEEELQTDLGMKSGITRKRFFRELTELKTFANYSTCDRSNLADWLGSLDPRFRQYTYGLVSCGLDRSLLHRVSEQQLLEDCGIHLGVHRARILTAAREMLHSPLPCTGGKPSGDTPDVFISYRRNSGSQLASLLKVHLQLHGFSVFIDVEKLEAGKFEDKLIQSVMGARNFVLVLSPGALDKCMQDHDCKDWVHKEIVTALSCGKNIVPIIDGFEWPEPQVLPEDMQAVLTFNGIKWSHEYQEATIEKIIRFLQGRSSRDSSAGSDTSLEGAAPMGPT", "assay": "ARM-SAM-TIR SARM1 IC50 assay (NADase activity, NAD+ cleavage)", "assay_type": "biochemical", "text": "This Example describes an assay of ARM-SAM-TTR NADase activity and use of this assay to measure the efficacy of compounds of Formula I or Formula II to block SARM1 mediated NAD+ cleavage. This assay is optimized in such a way as to characterize the efficacy of the compounds in Formula I or Formula II to inhibit SARM1 activity and to calculate an IC50 value for each compound. This assay makes use of full length SARI, which encompasses the ARM, SAM and TTR domains.\nPreparation of ARM-SAM-TIR Lysate (STL)\nNRK1-HEK293T cells were seeded onto 150 cm^2 plates at 20×10^6 cells per plate. The next day, the cells were transfected with 15 μg ARM-SAM-TIR expression plasmid, SEQ ID NO: 1.\nThe cultures were supplemented with 1 mM NR at time of transfection to minimize toxicity from ARM-SAM-TIR overexpression. Forty-eight hours after transfection, cells were harvested, pelleted by centrifugation at 1,000 rpm (Sorvall ST 16R centrifuge, Thermo Fisher), and washed once with cold PBS (0.01 M phosphate buffered saline NaCl 0.138 M; KCl 0.0027 M; pH 7.4). The cells were resuspended in PBS with protease inhibitors (cOmplete™ protease inhibitor cocktail, Roche product #11873580001) and cell lysates were prepared by sonication (Branson Sonifer 450, output=3, 20 episodes of stroke). The lysates were centrifuged (12,000×g for 10 min at 4° C.) to remove cell debris and the supernatants (containing ARM-SAM-TIR protein) were stored at −80° C. for later use in the in vitro ARM-SAM-TIR NADase assay (see below). Protein concentration was determined by the Bicinchoninic (BCA) method and used to normalize lysate concentrations.\nARM-SAM-TIR IC50 Assay of Formula I or Formula II Compounds.\nThe enzymatic assay was performed in a 384-well polypropylene plate in Dulbecco's PBS buffer in a final assay volume of 20 μL. ARM-SAM-TIR lysate with a final concentration of 5 μg/mL was pre-incubated with the respective compound at 1% DMSO final assay concentration over 2 h at room temperature. The reaction was initiated by addition of 5 μM final assay concentration of NAD+ as substrate. After a 2 hr room temperature incubation, the reaction was terminated with 40 μL of stop solution of 7.5% trichloroactetic acid in acetonitrile. The NAD+ and ADPR concentrations were analyzed by a RapidFire High Throughput Mass Spectrometry System (Agilent Technologies, Santa Clara, CA) using an API4000 triple quadrupole mass spectrometer (AB Sciex Framingham, MA).", "key": {"[1]": {"conditions": "ARM-SAM-TIR lysate 5 μg/mL from NRK1-HEK293T cells, 2 h pre-incubation with compound, 5 μM NAD+, 2 hr room temperature, NAD+ and ADPR by RapidFire mass spectrometry, read-out: SARM1 IC50"}}, "note": "Where two headings read alike, the source gives them in different places.", "data": [{"smiles": "N#Cc1cc(NC(CCO)C2CCOCC2)nc2ccc(Cl)cc12", "note": "(stereo not shown) [Example 33]", "values": [{"measurement": "IC50", "setting": "[1]", "value": "5 to 15", "unit": "µM"}]}, {"smiles": "CN(C)c1cc(C#N)c2cc(Br)ccc2n1", "note": "[Example 22]", "values": [{"measurement": "IC50", "setting": "[1]", "value": "< 5", "unit": "µM"}]}, {"smiles": "N#Cc1cc(N2CCCC(CCC(N)=O)C2)nc2ccc(Cl)cc12", "note": "(stereo not shown) [Example 40]", "values": [{"measurement": "IC50", "setting": "[1]", "value": "< 5", "unit": "µM"}]}, {"smiles": "CS(=O)(=O)C1CCCN(c2cc(C#N)c3cc(Cl)ccc3n2)C1", "note": "(stereo not shown) [Example 59]", "values": [{"measurement": "IC50", "setting": "[1]", "value": "< 5", "unit": "µM"}]}, {"smiles": "N#Cc1cc(N2CC3CCC2CN3)nc2ccc(Cl)cc12", "note": "(stereo not shown) [Example 74]", "values": [{"measurement": "IC50", "value": "< 5", "unit": "µM"}]}, {"smiles": "COC1CCN(c2cc(C#N)c3cc(Cl)ccc3n2)CC1", "note": "[Example 54]", "values": [{"measurement": "IC50", "setting": "[1]", "value": "< 5", "unit": "µM"}]}, {"smiles": "N#Cc1cc(N2CC[C@@H](N)C2)nc2ccc(Cl)cc12", "note": "[Example 65]", "values": [{"measurement": "IC50", "setting": "[1]", "value": "< 5", "unit": "µM"}]}, {"smiles": "Cc1nccnc1C(=O)N[C@H]1CCCN(c2cc(C#N)c3cc(Br)ccc3n2)C1", "note": "[Example 134]", "values": [{"measurement": "IC50", "setting": "[1]", "value": "< 5", "unit": "µM"}]}, {"smiles": "CC1(O)CCCN(c2cc(C#N)c3cc(Br)ccc3n2)C1", "note": "(stereo not shown) [Example 97]", "values": [{"measurement": "IC50", "setting": "[1]", "value": "< 5", "unit": "µM"}]}, {"smiles": "N#Cc1cc(N2CCC(NCCO)CC2)nc2ccc(Cl)cc12", "note": "[Example 1]", "values": [{"measurement": "IC50", "setting": "[1]", "value": "5 to 15", "unit": "µM"}]}, {"smiles": "CS(=O)(=O)N[C@H]1CCCN(c2cc(C#N)c3cc(Br)ccc3n2)C1", "note": "[Example 110]", "values": [{"measurement": "IC50", "setting": "[1]", "value": "< 5", "unit": "µM"}]}, {"smiles": "N#Cc1cc(N2CCC[C@H](N)C2)nc2ccc(Cl)cc12", "note": "[Example 58]", "values": [{"measurement": "IC50", "setting": "[1]", "value": "< 5", "unit": "µM"}]}, {"smiles": "CC(C)(C)OC(=O)NC1CCN(c2cc(C#N)c3cc(C4CCOC4)ccc3n2)CC1", "note": "(stereo not shown) [Example 94]", "values": [{"measurement": "IC50", "setting": "[1]", "value": "< 5", "unit": "µM"}]}, {"smiles": "CCN1CCN(c2cc(C#N)c3cc(Cl)ccc3n2)CC1", "note": "[Example 53]", "values": [{"measurement": "IC50", "setting": "[1]", "value": "> 30", "unit": "µM"}]}, {"smiles": "N#Cc1cc(N2CCC[C@H](C(=O)N3CCCC3)C2)nc2ccc(Br)cc12", "note": "[Example 100]", "values": [{"measurement": "IC50", "setting": "[1]", "value": "< 5", "unit": "µM"}]}, {"smiles": "Cc1n[nH]cc1C(=O)N[C@H]1CCCN(c2cc(C#N)c3cc(Br)ccc3n2)C1", "note": "[Example 129]", "values": [{"measurement": "IC50", "setting": "[1]", "value": "< 5", "unit": "µM"}]}]}
